Values quoted from earlier work, collected in patent US20030166007A1, “Chemical proteomics” (MDS Proteomics Inc., priority 2002, published 2003).

Assays:
[1] = molecular target: T1, muscle glycogen phosphorylase b (Homo sapiens, UniProt P11217); settings: cited from earlier work
T1 sequence (P11217 1-842): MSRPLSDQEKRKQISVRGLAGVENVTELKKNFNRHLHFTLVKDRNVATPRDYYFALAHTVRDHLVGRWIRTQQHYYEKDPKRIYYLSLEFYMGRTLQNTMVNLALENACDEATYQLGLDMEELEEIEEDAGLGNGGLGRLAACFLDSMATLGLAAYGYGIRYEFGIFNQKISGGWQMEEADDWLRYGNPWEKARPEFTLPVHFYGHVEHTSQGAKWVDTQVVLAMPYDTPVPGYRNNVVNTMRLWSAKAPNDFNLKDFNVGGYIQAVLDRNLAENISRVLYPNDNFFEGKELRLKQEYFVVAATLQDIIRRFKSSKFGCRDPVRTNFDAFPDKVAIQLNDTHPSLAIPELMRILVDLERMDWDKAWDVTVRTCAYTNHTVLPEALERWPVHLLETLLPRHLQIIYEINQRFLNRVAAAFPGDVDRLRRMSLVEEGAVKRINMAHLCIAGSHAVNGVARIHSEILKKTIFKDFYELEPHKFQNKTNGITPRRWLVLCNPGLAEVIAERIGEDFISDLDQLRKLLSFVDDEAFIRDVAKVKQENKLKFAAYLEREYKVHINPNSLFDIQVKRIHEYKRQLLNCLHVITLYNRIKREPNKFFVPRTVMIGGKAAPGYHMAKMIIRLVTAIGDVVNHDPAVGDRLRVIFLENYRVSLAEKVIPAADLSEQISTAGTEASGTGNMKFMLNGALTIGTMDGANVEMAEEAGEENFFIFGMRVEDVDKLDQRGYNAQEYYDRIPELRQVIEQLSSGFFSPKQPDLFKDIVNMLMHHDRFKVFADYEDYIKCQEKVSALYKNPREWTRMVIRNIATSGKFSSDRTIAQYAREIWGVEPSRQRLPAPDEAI

[2] = molecular target: Amido phosphoribosyltransferase (Homo sapiens, UniProt Q06203); settings: in vitro assays; cited from earlier work
Amido phosphoribosyltransferase, sequence (Q06203 12-517, species assumed): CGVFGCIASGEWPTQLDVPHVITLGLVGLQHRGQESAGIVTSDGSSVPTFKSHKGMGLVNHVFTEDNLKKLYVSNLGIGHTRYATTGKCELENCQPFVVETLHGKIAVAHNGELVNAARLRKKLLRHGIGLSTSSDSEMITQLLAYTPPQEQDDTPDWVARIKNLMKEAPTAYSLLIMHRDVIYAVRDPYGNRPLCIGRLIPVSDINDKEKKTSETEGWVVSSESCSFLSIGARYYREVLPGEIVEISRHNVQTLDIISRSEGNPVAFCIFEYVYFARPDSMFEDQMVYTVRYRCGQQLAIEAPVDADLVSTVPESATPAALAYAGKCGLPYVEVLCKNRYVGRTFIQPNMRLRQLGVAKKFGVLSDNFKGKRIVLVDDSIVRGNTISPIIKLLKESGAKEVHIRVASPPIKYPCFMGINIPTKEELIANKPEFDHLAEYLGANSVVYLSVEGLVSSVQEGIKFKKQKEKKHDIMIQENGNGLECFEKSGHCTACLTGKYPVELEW

Row | Compound | inhibition of muscle glycogen phosphorylase b [1] | inhibition of amido-phosphoribosyltransferase [2]
1 | CN(Cc1cnc2nc(N)nc(N)c2n1)c1c(Cl)cc(C(=O)N[C@@H](CCC(=O)O)C(=O)O)cc1Cl [3′,5′-dichloroMethotrexate] | reversible inhibitors | 
2 | CN(Cc1cnc2nc(N)nc(N)c2n1)c1ccc(C(=O)NC(CCC(=O)O)C(=O)O)cc1Cl (stereo not drawn) [3′-chloroMethotrexate] | reversible inhibitors | 
3 | CN(Cc1cnc2nc(N)nc(N)c2n1)c1ccc(C(=O)N[C@@H](CCC(=O)N[C@@H](CCC(=O)N[C@@H](CCC(=O)N[C@@H](CCC(=O)N[C@@H](CCC(=O)O)C(=O)O)C(=O)O)C(=O)O)C(=O)O)C(=O)O)cc1 [MTX-Glu5] |  | inhibited
